Values after ≈ are worked out from the molar mass of the structure shown. Where two headings read alike, the source gives them in different places.
Legend:
[1] = Solubility in water at room temperature; format: physicochemical
uridine phosphorylase [2] = experiment: Inhibition of uridine phosphorylase (mouse liver cytosol, uridine substrate); format: biochemical; details: for Ki: uridine 1 mM, pH 8, 37° C., 30 min, Dixon plots, read-out: APP Ki (apparent inhibition constant); for uridine phosphorylase inhibition compared with uracil / acyclouridine counterpart or analogue: comparison in words from Table I
Description: The activity of the 5-benzyl barbiturates of this invention as inhibitors of uridine phosphorylase was measured essentially following the procedure of Naguib et al. (vol. 36, Biochem. Pharmac. pp. 2195-2201 (1987)), the disclosure of which is incorporated herein by reference. An abridged description of the protocol is described below.
Mouse livers for these experiments were obtained from Swiss Albino (CDl) mice (Charles River Laboratories, Boston, Mass.). The mice were killed by cervical dislocation, and the livers removed and washed with ice-cold normal saline (0.9%) before any further manipulation.
The saline solution was wiped off the organs with tissue paper, and the organs weighed and then cut into smaller pieces in ice-cold homogenization buffer (3:1, v/w) containing 20 mM potassium phosphate (pH 8), 1 mM EDTA, and 1 mM mercaptoethanol. The livers were then homogenized with a polytron homogenizer (Brinkman), and the homogenates centrifuged at 105,000 g for 1 hr at 4°. The supernatant fluids (cytosol) were collected and used as the enzyme source.
The assay mixture contained 20 mM potassium phosphate (pH 8), 1 mM EDTA, 1 mM mercaptoethanol, substrate (uridine, 9 mCi/mmol) and 40 μl of enzyme preparation in a final volume of 80 μl. Under these conditions the activity was linear with time and amount of enzyme. Apparent Ki values were estimated from Dixon plots (1/v vs[I]) of the data by a computer program with least squares fitting, using uridine (1 mM) and five different concentrations of the inhibitor within the range of 0.0625 μM and 1.0 μM.
Incubation was carried out at 37° C., for 30 min. The reaction was terminated by immersing the reaction tubes (1 ml Eppendorf tubes) in boiling water for 1 min. and then freezing the reaction tubes for at least 20 min. Proteins were removed by centrifugation, and 5 μl of the supernatant fluid spotted on silica gel TLC plates which had been prespotted with 5 μl of a standard mixture of 10 mM each uridine and uracil. The plates were then developed in a mixture of chloroform and methanol (90:10, v/v). Uridine and uracil were identified by UV quenching. (Rf values for uridine and uracil are 0.09 and 0.39, respectively.) Spots were then cut out and counted in 20 ml of Omnifluor-based scintillant.
Protein concentrations were determined by the method of Bradford, (Bradford, M. M., vol. 72, Analyt. Biochem. p. 248 (1976)) as described by the Bio-Rad Laboratories (Bio-Rad Laboratories, Bulletin 1069, Bio-Rad Laboratories, Richmond, Calif. (1979)), using bovine […] as a standard.

[3] = prolonged AZT administration, or high doses of uridine (background); cited from earlier work
[4] = in water at room temperature; acyclouridines of the art (background); cited from earlier work
uridine phosphorylase [5] = details: *calculated from Niedzwicki, J. G. et al.; read-out: APP Ki (apparent inhibition constant); cited from earlier work
[6] = tested on: human bone marrow progenitor cells (HBMP); details: Somadossi et al. 1988; cited from earlier work
[7] = water, in water, at room temperature, read-out: SOL. (solubility)

5-benzyloxybenzylacetyl-1-[(1-hydroxy-2-ethoxy)methyl] barbiturate [BBCAB]
SOL. (solubility) ([1]; in water, at room temperature): > 3 mM
Ki (uridine phosphorylase [2]): 2.6 µM

Cc1cn([C@H]2C[C@H](N=[N+]=[N-])[C@@H](CO)O2)c(=O)[nH]c1=O [AZT, 3'-azido-3'-deoxythymidine]
toxic side effects [3]: suppression of bone marrow growth in the patient

O=c1[nH]c(=O)n(COCCO)cc1Cc1ccccc1 [BAU]
solubility ([1]; water): 1000 µM (≈ 276 µg/mL)
solubility in water [4]: about 1 mM
Ki (uridine phosphorylase [2]): 3.2 µM

O=C1NC(=O)C(Cc2ccccc2)C(=O)N1 [BB, 5-benzyl barbiturate]
solubility [1, 7]: > 3000 µM
Ki (uridine phosphorylase [2]): 44 µM

O=C1NC(=O)N(COCCO)C(=O)C1Cc1cccc(OCc2ccccc2)c1 (centres unmarked) [BBAB, 5-benzyloxybenzyl-1-[(1-hydroxy-2-ethoxy)methyl] barbiturate]
water solubility compared with acyclouridines ([1]; in water, at room temperature): significantly greater than that of the acyclouridines
solubility [1, 7]: ≥ 3000 µM
uridine phosphorylase inhibition compared with uracil / acyclouridine counterpart or analogue (uridine phosphorylase [2]): further improves inhibition
Ki (uridine phosphorylase [2]): 0.8 µM

O=c1[nH]c(=O)n(COCCO)cc1Cc1cccc(OCc2ccccc2)c1 [BBAU, 5-benzyl-oxybenzyl-acyclouridine]
solubility ([1]; water): ≤ 1000 µM
solubility in water [4]: about 1 mM
Ki (uridine phosphorylase [2]): 1.1 µM

O=C1NC(=O)C(Cc2cccc(OCc3ccccc3)c2)C(=O)N1 [BBB, 5-benzyloxybenzyl barbiturate]
solubility [1, 7]: > 3000 µM
uridine phosphorylase inhibition compared with uracil / acyclouridine counterpart or analogue (uridine phosphorylase [2]): significantly stronger uridine phosphorylase inhibitor than BBU
Ki (uridine phosphorylase [2]): 3 µM

O=c1[nH]cc(Cc2cccc(OCc3ccccc3)c2)c(=O)[nH]1 [BBU, 5-benzyloxybenzyl uracil]
solubility ([1]; water): ≤ 1000 µM

O=c1[nH]cc(Cc2ccccc2)c(=O)[nH]1 [BU]
Ki (uridine phosphorylase [5]): 54 µM
solubility ([1]; water): ≤ 1000 µM

O=C1CC(=O)NC(=O)N1 [Barbiturate, barbituric acid]
solubility ([1]; in water, at room temperature, read-out: SOL. (solubility)): > 3000 µM
Ki (uridine phosphorylase [2]): ~1500 µM

O=c1[nH]c(=O)n(COC(CO)CO)cc1Cc1cccc(OCc2ccccc2)c1 [HM-BBAU]
solubility in water [4]: about 1 mM

COc1cccc(CC2C(=O)NC(=O)N(COCCOC(C)=O)C2=O)c1 (centres unmarked) [MBCAB, 5-Methoxybenzylacetyl acyclo barbiturate]
solubility [1, 7]: > 3000 µM
Ki (uridine phosphorylase [2]): 1.9 µM

Nc1ccn([C@@H]2O[C@H](CO)[C@@H](O)[C@H]2O)c(=O)n1 [cytidine]
reversal of toxic effects of AZT [6]: to a lesser extent

O=c1ccn([C@@H]2O[C@H](CO)[C@@H](O)[C@H]2O)c(=O)[nH]1 [uridine]
toxic side effects [3]: toxic side effects, such as phlebitis and pyrogenic reactions
reversal of toxic effects of AZT [6]: can reverse the toxic effects of AZT in human bone marrow progenitor cells (HBMP)
